According to patent US20260053811A1, “METHODS OF TREATING HYPERTENSION IN OBESE SUBJECTS” (Mineralys Therapeutics, Inc., priority 2022, published 2026):

Tested on: hypertensive subjects
Test: Adverse events (TEAEs, SAEs, AESI, study drug discontinuation, dose modification);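 also: counts of spontaneously reported adverse events in the Safety Analysis Set, subjects grouped by treatment actually received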
Format: in vivo, human
Details: Part 1
Source text: In analyses performed on the Safety Analysis Set, subjects will be analyzed according to their actual treatment received.

CC(=O)N[C@H]1CC[C@H](NC(=O)CN2CCN(c3nncc(-c4ccc(C)cc4)n3)CC2)CC1 [Compound A HBr]
On-treatment TEAE: Infections and infestations, Moderate (12.5 mg QD (N = 23)): 0 n (%) | On-treatment TEAE: Investigations (12.5 mg QD (N = 23)): 3 (13.0) n (%) | On-treatment TEAE: Investigations, Mild (12.5 mg QD (N = 23)): 3 (13.0) n (%) | On-treatment TEAE: Investigations, Moderate (12.5 mg QD (N = 23)): 0 n (%) | On-treatment TEAE: Metabolism and nutrition disorders (12.5 mg QD (N = 23)): 6 (26.1) n (%) | On-treatment TEAE: Metabolism and nutrition disorders, Mild (12.5 mg QD (N = 23)): 4 (17.4) n (%) | On-treatment TEAE: Metabolism and nutrition disorders, Moderate (12.5 mg QD (N = 23)): 1 (4.3) n (%) | On-treatment TEAE: Nervous system disorders (12.5 mg QD (N = 23)): 2 (8.7) n (%) | On-treatment TEAE: Nervous system disorders, Mild (12.5 mg QD (N = 23)): 2 (8.7) n (%) | On-treatment TEAE: Orthostatic hypotension (12.5 mg QD (N = 23)): 2 (8.7) n (%) | On-treatment TEAE: Orthostatic hypotension, Mild (12.5 mg QD (N = 23)): 2 (8.7) n (%) | On-treatment TEAE: Psychiatric disorders (12.5 mg QD (N = 23)): 0 n (%) | On-treatment TEAE: Psychiatric disorders, Moderate (12.5 mg QD (N = 23)): 0 n (%) | On-treatment TEAE: Urinary tract infection (12.5 mg QD (N = 23)): 1 (4.3) n (%) | On-treatment TEAE: Urinary tract infection, Mild (12.5 mg QD (N = 23)): 1 (4.3) n (%) | On-treatment TEAE: Vascular disorders (12.5 mg QD (N = 23)): 3 (13.0) n (%) | On-treatment TEAE: Vascular disorders, Mild (12.5 mg QD (N = 23)): 2 (8.7) n (%) | On-treatment TEAE: Vascular disorders, Moderate (12.5 mg QD (N = 23)): 1 (4.3) n (%) | On-treatment TEAE: any, Mild (12.5 mg QD (N = 23)): 12 (52.2) n (%) | On-treatment TEAE: any, Moderate (12.5 mg QD (N = 23)): 3 (13.0) n (%) | On-treatment TEAE: any, Severe (12.5 mg QD (N = 23)): 1 (4.3) n (%) | Subjects with any On-treatment TEAEs leading to withdrawal from study drug (12.5 mg QD (N = 23)): 4 (17.4) n (%) | TEAE leading to permanent discontinuation from study drug: Activated partial thromboplastin time prolonged (12.5 mg QD (N = 23)): 0 n (%) | TEAE leading to permanent discontinuation from study drug: Cardiac disorders (12.5 mg QD (N = 23)): 1 (4.3) n (%) | TEAE leading to permanent discontinuation from study drug: Coronary artery disease (12.5 mg QD (N = 23)): 1 (4.3) n (%) | TEAE leading to permanent discontinuation from study drug: Dizziness (12.5 mg QD (N = 23)): 1 (4.3) n (%) | TEAE leading to permanent discontinuation from study drug: Hyperkalaemia (12.5 mg QD (N = 23)): 2 (8.7) n (%) | TEAE leading to permanent discontinuation from study drug: Hypertension (12.5 mg QD (N = 23)): 0 n (%) | TEAE leading to permanent discontinuation from study drug: Hypotension (12.5 mg QD (N = 23)): 0 n (%) | TEAE leading to permanent discontinuation from study drug: Investigations (12.5 mg QD (N = 23)): 0 n (%) | TEAE leading to permanent discontinuation from study drug: Metabolism and nutrition disorders (12.5 mg QD (N = 23)): 2 (8.7) n (%) | TEAE leading to permanent discontinuation from study drug: Nervous system disorders (12.5 mg QD (N = 23)): 1 (4.3) n (%) | TEAE leading to permanent discontinuation from study drug: Orthostatic hypotension (12.5 mg QD (N = 23)): 0 n (%) | TEAE leading to permanent discontinuation from study drug: Vascular disorders (12.5 mg QD (N = 23)): 0 n (%) | On-treatment TEAE: Blood and lymphatic system disorders (25 mg BID (N = 30)): 2 (6.7) n (%) | On-treatment TEAE: Blood and lymphatic system disorders, Mild (25 mg BID (N = 30)): 2 (6.7) n (%) | On-treatment TEAE: Blood creatinine increased (25 mg BID (N = 30)): 0 n (%) | On-treatment TEAE: Blood creatinine increased, Mild (25 mg BID (N = 30)): 0 n (%) | On-treatment TEAE: Cardiac disorders (25 mg BID (N = 30)): 0 n (%) | On-treatment TEAE: Cortisol decreased (25 mg BID (N = 30)): 1 (3.3) n (%) | On-treatment TEAE: Cortisol decreased, Mild (25 mg BID (N = 30)): 1 (3.3) n (%) | On-treatment TEAE: Dizziness (25 mg BID (N = 30)): 0 n (%) | On-treatment TEAE: Gastrointestinal disorders (25 mg BID (N = 30)): 1 (3.3) n (%) | On-treatment TEAE: Gastrointestinal disorders, Mild (25 mg BID (N = 30)): 1 (3.3) n (%) | On-treatment TEAE: General disorders and administration site conditions (25 mg BID (N = 30)): 0 n (%) | On-treatment TEAE: General disorders and administration site conditions, Mild (25 mg BID (N = 30)): 0 n (%) | On-treatment TEAE: Glomerular filtration rate decreased (25 mg BID (N = 30)): 0 n (%) | On-treatment TEAE: Glomerular filtration rate decreased, Mild (25 mg BID (N = 30)): 0 n (%) | On-treatment TEAE: Headache (25 mg BID (N = 30)): 2 (6.7) n (%) | On-treatment TEAE: Headache, Mild (25 mg BID (N = 30)): 2 (6.7) n (%) | On-treatment TEAE: Hyperkalaemia (25 mg BID (N = 30)): 9 (30.0) n (%) | On-treatment TEAE: Hyperkalaemia, Mild (25 mg BID (N = 30)): 7 (23.3) n (%) | On-treatment TEAE: Hyperkalaemia, Moderate (25 mg BID (N = 30)): 2 (6.7) n (%) | On-treatment TEAE: Hyperkalaemia, Severe (25 mg BID (N = 30)): 0 n (%) | On-treatment TEAE: Hypertension (25 mg BID (N = 30)): 1 (3.3) n (%) | On-treatment TEAE: Hypertension, Moderate (25 mg BID (N = 30)): 0 n (%) | On-treatment TEAE: Infections and infestations (25 mg BID (N = 30)): 3 (10.0) n (%) | On-treatment TEAE: Infections and infestations, Mild (25 mg BID (N = 30)): 2 (6.7) n (%) | On-treatment TEAE: Infections and infestations, Moderate (25 mg BID (N = 30)): 1 (3.3) n (%) | On-treatment TEAE: Investigations (25 mg BID (N = 30)): 3 (10.0) n (%) | On-treatment TEAE: Investigations, Mild (25 mg BID (N = 30)): 2 (6.7) n (%) | On-treatment TEAE: Investigations, Moderate (25 mg BID (N = 30)): 1 (3.3) n (%) | On-treatment TEAE: Metabolism and nutrition disorders (25 mg BID (N = 30)): 10 (33.3) n (%) | On-treatment TEAE: Metabolism and nutrition disorders, Mild (25 mg BID (N = 30)): 8 (26.7) n (%) | On-treatment TEAE: Metabolism and nutrition disorders, Moderate (25 mg BID (N = 30)): 2 (6.7) n (%) | On-treatment TEAE: Nervous system disorders (25 mg BID (N = 30)): 3 (10.0) n (%) | On-treatment TEAE: Nervous system disorders, Mild (25 mg BID (N = 30)): 2 (6.7) n (%) | On-treatment TEAE: Orthostatic hypotension (25 mg BID (N = 30)): 0 n (%) | On-treatment TEAE: Orthostatic hypotension, Mild (25 mg BID (N = 30)): 0 n (%) | On-treatment TEAE: Psychiatric disorders (25 mg BID (N = 30)): 0 n (%) | On-treatment TEAE: Psychiatric disorders, Moderate (25 mg BID (N = 30)): 0 n (%) | On-treatment TEAE: Urinary tract infection (25 mg BID (N = 30)): 3 (10.0) n (%) | On-treatment TEAE: Urinary tract infection, Mild (25 mg BID (N = 30)): 2 (6.7) n (%) | On-treatment TEAE: Vascular disorders (25 mg BID (N = 30)): 1 (3.3) n (%) | On-treatment TEAE: Vascular disorders, Mild (25 mg BID (N = 30)): 1 (3.3) n (%) | On-treatment TEAE: Vascular disorders, Moderate (25 mg BID (N = 30)): 0 n (%) | On-treatment TEAE: any, Mild (25 mg BID (N = 30)): 14 (46.7) n (%) | On-treatment TEAE: any, Moderate (25 mg BID (N = 30)): 4 (13.3) n (%) | On-treatment TEAE: any, Severe (25 mg BID (N = 30)): 0 n (%) | Subjects with any On-treatment TEAEs leading to withdrawal from study drug (25 mg BID (N = 30)): 1 (3.3) n (%) | TEAE leading to permanent discontinuation from study drug: Activated partial thromboplastin time prolonged (25 mg BID (N = 30)): 0 n (%) | TEAE leading to permanent discontinuation from study drug: Cardiac disorders (25 mg BID (N = 30)): 0 n (%) | TEAE leading to permanent discontinuation from study drug: Coronary artery disease (25 mg BID (N = 30)): 0 n (%) | TEAE leading to permanent discontinuation from study drug: Dizziness (25 mg BID (N = 30)): 0 n (%) | TEAE leading to permanent discontinuation from study drug: Hyperkalaemia (25 mg BID (N = 30)): 1 (3.3) n (%) | TEAE leading to permanent discontinuation from study drug: Hypertension (25 mg BID (N = 30)): 1 (3.3) n (%) | TEAE leading to permanent discontinuation from study drug: Hypotension (25 mg BID (N = 30)): 0 n (%) | TEAE leading to permanent discontinuation from study drug: Investigations (25 mg BID (N = 30)): 0 n (%) | TEAE leading to permanent discontinuation from study drug: Metabolism and nutrition disorders (25 mg BID (N = 30)): 1 (3.3) n (%) | TEAE leading to permanent discontinuation from study drug: Nervous system disorders (25 mg BID (N = 30)): 0 n (%) | TEAE leading to permanent discontinuation from study drug: Orthostatic hypotension (25 mg BID (N = 30)): 0 n (%) | TEAE leading to permanent discontinuation from study drug: Vascular disorders (25 mg BID (N = 30)): 1 (3.3) n (%) | On-treatment TEAE: Blood and lymphatic system disorders (50 mg QD (N = 28)): 0 n (%) | On-treatment TEAE: Blood and lymphatic system disorders, Mild (50 mg QD (N = 28)): 0 n (%) | On-treatment TEAE: Blood creatinine increased (50 mg QD (N = 28)): 0 n (%) | On-treatment TEAE: Blood creatinine increased, Mild (50 mg QD (N = 28)): 0 n (%) | On-treatment TEAE: Cardiac disorders (50 mg QD (N = 28)): 1 (3.6) n (%) | On-treatment TEAE: Cortisol decreased (50 mg QD (N = 28)): 0 n (%) | On-treatment TEAE: Cortisol decreased, Mild (50 mg QD (N = 28)): 0 n (%) | On-treatment TEAE: Dizziness (50 mg QD (N = 28)): 2 (7.1) n (%) | On-treatment TEAE: Gastrointestinal disorders (50 mg QD (N = 28)): 1 (3.6) n (%) | On-treatment TEAE: Gastrointestinal disorders, Mild (50 mg QD (N = 28)): 1 (3.6) n (%)
